Measured values: paper PMC8540140, “The Real Cytotoxic Effect of Artemisinins on Colon Cancer Cells in a Physiological Cell Culture Setting. How Composition of the Culture Medium Biases Experimental Findings” (Pharmaceuticals, 2021)
Read-outs that look alike come from different tables or passages of the source.

How the values were obtained:
[1] = test system: SW480 human primary colon cancer cell line; experiment: MTT cytotoxicity assay, SW480; type: cell-based; conditions: 72 h, LA 20 or 40 µM, TRFi 50 µM where named in the label
Description: (§1) The human cell lines SW480 (primary colon cancer), SW620 (lymph node metastatic from the same patient as SW480), and HaCaT (immortalized keratinocyte) were obtained from the American Type Culture Collection (ATCC, Rockville, USA). SW480 and SW620 cells were grown in MEM (minimal essential medium, ThermoSci, USA), and HaCaT in DMEM high glucose (Dulbecco’s Modified Eagle’s Medium, Biowest SAS, France) supplemented with 10% FBS (fetal bovine serum), HEPES (20 mM), and antibiotics (100 U/mL of penicillin and 100 μg/mL of streptomycin). The cells were maintained in a humidified incubator at 37 °C/5% CO2 until 80–90% confluence was reached.
(§2) Next, the cells were harvested by treatment with 0.25% trypsin-0.02% EDTA (Gibco Life Technologies, Carslabad, CA USA) and seeded in 96-well plates (1 × 10^4 cells per well) for MTT assay or in 6-well plates (4 × 10^4 cells per well) for Trypan blue exclusion method. […] The cells treated only with 20 µM LA were used as a control. All experimental settings were repeated with holo-transferrin (TRFi) at pharmacological concentration (50 µM). All cells were cultured for a period of 72 h.
(§3) The cytotoxic effects of tested compounds were assessed by MTT (3-(4,5-dimethylthiazol-2-yl)-2,5-diphenyltetrazolium bromide) assay. This assay is based on the metabolic reduction of soluble MTT into an insoluble colored formazan product by mitochondrial dehydrogenase activity of viable cells. After 72 h incubation in the presence of experimental compounds the cells were incubated at 37 °C with MTT solution (0.5 mg/mL) for 4h. Obtained purple formazan product was dissolved in DMSO with isopropanol (1:1) and the optical density was measured at 570 nm. Each experiment was performed in triplicate. The cytotoxicity of compounds was presented as a percent of MTT reduced in treated cells vs. control cells. The relative MTT level (%) was calculated according formula [A]/[B] × 100. [A] express the absorbance of the test sample whereas [B] the absorbance of the control sample (untreated cells. IC50 values were calculated using CompuSyn version 1.0.

[2] = test system: SW620 human metastatic colon cancer cell line; experiment: MTT cytotoxicity assay, SW620; type: cell-based; conditions: SW-620, 72 h, LA 20 or 40 µM, TRFi 50 µM where named in the label
Description: The cytotoxic effects of tested compounds were assessed by MTT (3-(4,5-dimethylthiazol-2-yl)-2,5-diphenyltetrazolium bromide) assay. […] Obtained purple formazan product was dissolved in DMSO with isopropanol (1:1) and the optical density was measured at 570 nm. […] The relative MTT level (%) was calculated according formula [A]/[B] × 100. [A] express the absorbance of the test sample whereas [B] the absorbance of the control sample (untreated cells. IC50 values were calculated using CompuSyn version 1.0.

[3] = test system: HaCaT human immortal keratinocyte cell line; experiment: MTT cytotoxicity assay, HaCaT; type: cell-based; conditions: for IC50: Homo sapiens, HaCaT, MTT, 72 h; for cytotoxic effect on HaCaT cells: combination with LA40 and TRFi
Description: as §1, §2, §3

[4] = test system: SW480 cells; experiment: Trypan blue exclusion viability assay, SW480; type: cell-based, human; conditions: 8 µM with LA (40 µM), 72 h, TB assay
Description: as §2
(§4) After a 72 h incubation with serial concentration of experimental compounds the cells were washed in PBS and harvested with trypsin. The viability was estimated by trypan blue exclusion assay using an automated cell counter (Countess Invitrogen). Experiments were performed in triplicate.

[5] = test system: SW620 cells; experiment: Trypan blue exclusion viability assay, SW620; type: cell-based, human; conditions: 8 µM with LA (40 µM), 72 h, TB assay
Description: as §2, §4

[6] = test system: SW620 cells; experiment: FITC Annexin V/PI flow cytometry apoptosis assay, SW620; type: cell-based, human; conditions: for cells in late apoptosis SW620: with LA 40 and TRFi addition
Description: (§5) The cells were cultured and harvested under the conditions mentioned in Cell Culture and Treatment and seeded in 6-well plates (2 × 10^5 cells per well). […] The apoptotic effect of compounds was measured using the Annexin V:FITC assay kit (Sigma Aldrich) in accordance with the protocols provided. After 72 h treatment both floating and adherent cells were harvested. The floating cells were collected by centrifugation at 700× g for 5 min at 4 °C. Adherent cells were first trypsinized and then collected by centrifugation at 700× g for 5 min at 4 °C. Both fractions were resuspended in Annexin V binding buffer, pooled and incubated with FITC Annexin V and PI for 15 min at room temperature in the dark and analyzed by flow cytometry (Becton Dickinson). A total of 10,000 events were collected. Annexin V:FITC positive and PI negative cells were recognized as early apoptosis and Annexin V:FITC and PI positive cells as late apoptosis or necrosis.

[7] = FITC Annexin V/PI flow cytometry apoptosis assay, HaCaT; type: cell-based, human; conditions: human, HaCaT cells; read-out: Q1 viable cells HaCaT
Description: as §5

[8] = test system: HaCaT cells; experiment: as above; type: cell-based, human; conditions: with LA 40 and TRFi addition
Description: as §5

[9] = test system: SW480 cells; experiment: FITC Annexin V/PI flow cytometry apoptosis assay, SW480; type: cell-based; conditions: Homo sapiens, SW480, 72 h; read-out: Q1 viable cells SW480
Description: as §5

[10] = test system: SW948 cells; parameters: method as in ref 36 (Lu et al. 2018); conditions: 48 h, ref 36 (Lu et al. 2018), cited from earlier work
[11] = test system: HCT-116 cells; parameters: method as in ref 37 (Lu et al. 2014); conditions: 40 μM, 72 h; ref 37 (Lu et al. 2014); cited from earlier work
[12] = test system: IL-6 secreted by SW480 cells; experiment: Interleukin-6 ELISA in culture medium, SW480; type: cell-based, human; conditions: added to ART-LA or DHA-LA (20 and 40 µM), 72 h; all studied settings
Description: (§6) The level of interleukin-6 (IL-6) secreted by SW480 and SW620 cells was measured by commercial human IL-6 ELISA kits (Diaclon SAS, Besancon Cedex, France). […] The untreated cells were used as the control. The IL-6 level in a cell culture supernatant was determined by an enzyme-linked immunosorbent assay, according to the manufacturer’s protocol. The experiment was repeated three times.

[13] = test system: IL-6 secreted by SW620 cells; experiment: Interleukin-6 ELISA in culture medium, SW620; type: cell-based, human; conditions: added to ART-LA or DHA-LA (20 and 40 µM), 72 h; all studied settings except ART-LA20
Description: as §6

[14] = with TRFi 50 µM, read-out: IC50 HaCaT at the presence of TRFi
[15] = LA 20 or 40 µM, TRFi 50 µM where named in the label, read-out: IC50 HaCaT

Row | Compound | IC50 [1] [µM] | IC50 [2] [µM] | IC50 [3, 14] [µM] | IC50 [3, 15] [µM] | cytotoxic effect on HaCaT cells [3] | viability SW480 [4] [%] | viability SW620 [5] [%] | cells in late apoptosis SW620 [6] [%] | viability at 72 h, 2 µM [7] [%] | late apoptosis HaCaT [8] [%] | viability at 2 µM [9] [%] | viability at 2 µM ([6]; Homo sapiens, SW-620, 72 h, read-out: Q1 viable cells SW620) [%] | viability SW948 ([10]; 30 µM) [%] | viability SW948 ([10]; 50 µM) [%] | viability HCT-116 [11] [%] | effect of TRFi addition on IL-6 concentration SW480 [12] | effect of TRFi addition on IL-6 concentration SW620 [13]
1 | C[C@@H]1CC[C@H]2[C@@H](C)C(=O)O[C@@H]3O[C@@]4(C)CC[C@@H]1[C@]32OO4 [ART, Artemisinin] | 39 ± 2.75 | 42.8 ± 4.6 | 187 | 203 ± 16.2 | no cytotoxic effect | 39 ± 2.8 | 48 ± 2.8 | 90 | 80.8 | 25.68 | – | – | – | – | – | – | –
2 | C[C@H]1[C@@H](O)O[C@@H]2O[C@@]3(C)CC[C@H]4[C@H](C)CC[C@@H]1[C@@]24OO3 [DHA, dihydroartemisinin] | 11.4 ± 1.67 | 11.9 ± 2.3 | 129 | 116 ± 5.5 | no cytotoxic effect | 35 ± 1.8 | 42 ± 2.1 | 90 | 73.7 | 42.80 | 60.7 | 72.4 | 45 | 24 | 40 | – | –
3 | COc1cccc2c1C(=O)c1c(O)c3c(c(O)c1C2=O)C[C@@](O)(C(=O)CO)C[C@@H]3O[C@H]1C[C@H](N)[C@H](O)[C@H](C)O1 [DOX, doxorubicin] | 0.75 ± 0.1 | – | – | 0.29 ± 0.1 | – | – | – | – | – | – | – | – | – | – | – | – | –
4 | TRFi: holotransferrin, iron-binding protein added to culture medium at 50 µM | – | – | – | – | – | – | – | – | – | – | – | – | – | – | – | increased IL-6 concentration | increased IL-6 concentration
